Test results reported in the NIST ThermoML archive (doi:10.1016/j.jct.2019.02.011).
± gives the expanded uncertainty stated by the source.

Experiment: xn = mol fraction of the nth substance listed
Settings: 303.15 K, Liquid, Vibrating tube method

COC(=O)OC [dimethyl carbonate] + CCCO
mass density [kg/m3]
Settings | 5000 kPa | 10000 kPa | 15000 kPa | 20000 kPa | 25000 kPa | 30000 kPa
x1 = 0.0273 | – | 810.58 ± 1.4 | 814.19 ± 1.4 | 817.69 ± 1.4 | 821.09 ± 1.4 | 824.3 ± 1.4
x1 = 0.0506 | – | 817.06 ± 1.4 | 820.71 ± 1.4 | 824.27 ± 1.4 | 827.72 ± 1.4 | 830.93 ± 1.4
x1 = 0.0755 | – | 824.02 ± 1.4 | 827.68 ± 1.4 | 831.25 ± 1.4 | 834.74 ± 1.4 | 838.05 ± 1.4
x1 = 0.1007 | 827.26 ± 1.4 | 831 ± 1.4 | 834.7 ± 1.4 | 838.32 ± 1.4 | 841.82 ± 1.4 | 845.13 ± 1.4
x1 = 0.1495 | 840.77 ± 1.4 | 844.56 ± 1.4 | 848.32 ± 1.4 | 851.95 ± 1.4 | 855.5 ± 1.4 | 858.87 ± 1.4
x1 = 0.2003 | 854.68 ± 1.4 | 858.53 ± 1.4 | 862.39 ± 1.4 | 866.08 ± 1.4 | 869.69 ± 1.4 | 873.1 ± 1.4
x1 = 0.2529 | 869 ± 1.4 | 872.91 ± 1.4 | 876.81 ± 1.4 | 880.56 ± 1.4 | 884.23 ± 1.4 | 887.7 ± 1.4
x1 = 0.2993 | 881.57 ± 1.4 | 885.49 ± 1.4 | 889.45 ± 1.4 | 893.25 ± 1.4 | 896.97 ± 1.4 | 900.44 ± 1.4
x1 = 0.3497 | 894.99 ± 1.4 | 899.01 ± 1.4 | 903.02 ± 1.4 | 906.89 ± 1.4 | 910.67 ± 1.4 | 914.19 ± 1.4
x1 = 0.401 | 908.57 ± 1.4 | 912.65 ± 1.4 | 916.71 ± 1.4 | 920.64 ± 1.4 | 924.47 ± 1.4 | 928.04 ± 1.4
x1 = 0.4509 | 921.72 ± 1.4 | 925.81 ± 1.4 | 929.92 ± 1.4 | 933.91 ± 1.4 | 937.75 ± 1.5 | 941.37 ± 1.5
x1 = 0.5002 | 934.59 ± 1.4 | 938.74 ± 1.5 | 942.9 ± 1.5 | 946.9 ± 1.5 | 950.79 ± 1.5 | 954.47 ± 1.5
x1 = 0.5498 | 947.47 ± 1.5 | 951.68 ± 1.5 | 955.89 ± 1.5 | 959.95 ± 1.5 | 963.85 ± 1.5 | 967.53 ± 1.5
x1 = 0.5996 | 960.32 ± 1.5 | 964.59 ± 1.5 | 968.8 ± 1.5 | 972.92 ± 1.5 | 976.87 ± 1.5 | 980.61 ± 1.5
x1 = 0.6499 | 973.22 ± 1.5 | 977.56 ± 1.5 | 981.82 ± 1.5 | 985.95 ± 1.5 | 989.96 ± 1.5 | 993.75 ± 1.5
x1 = 0.7006 | 986.15 ± 1.5 | 990.49 ± 1.5 | 994.8 ± 1.5 | 998.94 ± 1.5 | 1003.01 ± 1.5 | 1006.8 ± 1.5
x1 = 0.7471 | 997.9 ± 1.5 | 1002.3 ± 1.5 | 1006.66 ± 1.5 | 1010.86 ± 1.5 | 1014.93 ± 1.5 | 1018.72 ± 1.5
x1 = 0.7989 | 1010.99 ± 1.5 | 1015.45 ± 1.5 | 1019.82 ± 1.5 | 1024.03 ± 1.5 | 1028.15 ± 1.5 | 1032 ± 1.5
x1 = 0.8491 | 1023.65 ± 1.5 | 1028.12 ± 1.5 | 1032.54 ± 1.5 | 1036.81 ± 1.5 | 1040.99 ± 1.5 | –
x1 = 0.8993 | 1036.28 ± 1.5 | 1040.81 ± 1.5 | 1045.23 ± 1.5 | 1049.51 ± 1.5 | 1053.69 ± 1.6 | –
x1 = 0.9249 | 1042.67 ± 1.5 | 1047.21 ± 1.5 | 1051.62 ± 1.5 | 1055.91 ± 1.6 | 1060.1 ± 1.6 | –
x1 = 0.9489 | 1048.62 ± 1.5 | 1053.16 ± 1.5 | 1057.63 ± 1.6 | 1061.92 ± 1.6 | 1066.11 ± 1.6 | –
x1 = 0.9743 | 1054.97 ± 1.6 | 1059.51 ± 1.6 | 1063.98 ± 1.6 | 1068.28 ± 1.6 | 1072.47 ± 1.6 | –
x1 = 1 | 1061.47 ± 0.57 | 1066.02 ± 0.57 | 1070.49 ± 0.58 | 1074.79 ± 0.59 | 1078.99 ± 0.6 | –
